Results: publication PMC10178848, “Modulating fast skeletal muscle contraction protects skeletal muscle in animal models of Duchenne muscular dystrophy” (The Journal of Clinical Investigation, 2023)

System: mdx mouse EDL muscle
Assay: Phosphoprotein array analysis (Cell Signaling Phospho Antibody Array)
Method: mdx mouse EDL muscle was prepared for ex vivo analysis as described (n = 5). Muscles were incubated for 1 hour with DMSO or EDG-5506 (5 μM) and then flash frozen in liquid nitrogen. Tissue preparation and analysis were performed as recommended by the manufacturer (Cell Signaling Phospho Antibody Array, Full Moon Biosystems).

## O=c1ccc(-c2cnc(OCC(F)(F)F)nc2)nn1Cc1cncc(F)c1 [EDG-5506]
4000031744 (T)
  Data Normalized to Median Signal: CDK1/CDC2 (Phospho-Tyr15): 0.89
  Data Normalized to Median Signal: CREB (Phospho-Ser133): 0.81
  Data Normalized to Median Signal: CaMK2-beta/gamma/delta (Phospho-Thr287): 1.20
  Data Normalized to Median Signal: CaMK2A (Phospho-Thr286): 0.85
  Data Normalized to Median Signal: Caspase 8 (Phospho-Ser347): 1.06
  Data Normalized to Median Signal: Caspase 9 (Phospho-Ser196): 2.98
  Data Normalized to Median Signal: Catenin beta (Phospho-Thr41/Ser45): 0.90
  Data Normalized to Median Signal: Chk2 (Phospho-Thr68): 0.66
  Data Normalized to Median Signal: Cyclin D1 (Phospho-Thr286): 2.47
  Data Normalized to Median Signal: Cyclin E1 (Phospho-Thr77): 1.57
  Data Normalized to Median Signal: DARPP-32 (Phospho-Thr34): 0.93
  Data Normalized to Median Signal: EEF2 (Phospho-Thr56): 1.33
  Data Normalized to Median Signal: FADD (Phospho-Ser194): 2.10
  Data Normalized to Median Signal: FAK (Phospho-Ser910): 1.62
  Data Normalized to Median Signal: FGFR1 (Phospho-Tyr654): 2.43
  Data Normalized to Median Signal: GRK2 (Phospho-Ser29): 1.51
  Data Normalized to Median Signal: GSK3 alpha/beta (Phospho-Tyr216/279): 1.02
  Data Normalized to Median Signal: Gab2 (Phospho-Tyr643): 4.36
  Data Normalized to Median Signal: HDAC1 (Phospho-Ser421): 1.53
  Data Normalized to Median Signal: HDAC2 (Phospho-Ser394): 1.45
  Data Normalized to Median Signal: HSP90B (Phospho-Ser226): 2.09
  Data Normalized to Median Signal: IKK-beta (Phospho-Tyr188): 1.11
  Data Normalized to Median Signal: IKK-beta (Phospho-Tyr199): 1.14
  Data Normalized to Median Signal: IKK-gamma (Phospho-Ser31): 0.98
  Data Normalized to Median Signal: IL-4R/CD124 (Phospho-Tyr497): 1.35
  Data Normalized to Median Signal: IL-10R-alpha (Phospho-Tyr496): 1.26
  Data Normalized to Median Signal: IkB-alpha (Phospho-Ser32/36): 8.76
  Data Normalized to Median Signal: Integrin beta-3 (Phospho-Tyr773): 0.89
  Data Normalized to Median Signal: JunB (Phospho-Ser259): 0.90
  Data Normalized to Median Signal: LYN (Phospho-Tyr507): 1.16
  Data Normalized to Median Signal: Lamin A/C (Phospho-Ser392): 0.81
  Data Normalized to Median Signal: MEK1 (Phospho-Ser217): 0.66
  Data Normalized to Median Signal: NFkB-p65 (Phospho-Ser311): 0.96
  Data Normalized to Median Signal: NFkB-p65 (Phospho-Ser529): 54.58
  Data Normalized to Median Signal: NFkB-p100/p52 (Phospho-Ser865): 1.13
  Data Normalized to Median Signal: P38 MAPK (Phospho-Thr180/Tyr182): 1.99
  Data Normalized to Median Signal: P70S6K (Phospho-Ser424): 0.97
  Data Normalized to Median Signal: P90RSK (Phospho-Thr359/Ser363): 1.39
  Data Normalized to Median Signal: PDK1 (Phospho-Ser241): 1.70
  Data Normalized to Median Signal: PLCG1 (Phospho-Tyr783): 7.48
  Data Normalized to Median Signal: PLK1 (Phospho-Thr210): 0.61
  Data Normalized to Median Signal: PP2A-alpha (Phospho-Tyr307): 0.97
  Data Normalized to Median Signal: PPAR-gamma (Phospho-Ser112): 1.23
  Data Normalized to Median Signal: Rb (Phospho-Ser807): 0.99
  Data Normalized to Median Signal: RelB (Phospho-Ser552): 2.68
  Data Normalized to Median Signal: SAPK/JNK (Phospho-Tyr185): 0.87
  Data Normalized to Median Signal: SHP-2 (Phospho-Tyr542): 1.06
  Data Normalized to Median Signal: STAT3 (Phospho-Tyr705): 0.90
  Data Normalized to Median Signal: STAT4 (Phospho-Tyr693): 43.74
  Data Normalized to Median Signal: STAT6 (Phospho-Thr645): 0.94
  Data Normalized to Median Signal: SYK (Phospho-Tyr348): 1.04
  Data Normalized to Median Signal: Smad1 (Phospho-Ser187): 1.71
  Data Normalized to Median Signal: Smad2 (Phospho-Ser467): 1.05
  Data Normalized to Median Signal: Smad2/3 (Phospho-Thr8): 2.11
  Data Normalized to Median Signal: Smad3 (Phospho-Ser213): 1.56
  Data Normalized to Median Signal: Src (Phospho-Tyr418): 9.05
  Data Normalized to Median Signal: Tau (Phospho-Ser396): 0.88
  Data Normalized to Median Signal: VEGFR2 (Phospho-Tyr1175): 0.88
  Data Normalized to Median Signal: Zap-70 (Phospho-Tyr319): 1.25
  Data Normalized to Median Signal: c-Jun (Phospho-Ser73): 0.98
  Data Normalized to Median Signal: p44/42 MAP Kinase (Phospho-Tyr204): 0.86
  Data Normalized to Median Signal: p53 (Phospho-Ser15): 1.59
T vs C
  Fold Change between Samples T/C: 4E-BP1 (Phospho-Thr45): 0.89
  Fold Change between Samples T/C: ACC1 (Phospho-Ser80): 1.12
  Fold Change between Samples T/C: AMPKbeta1 (Phospho-Ser182): 0.97
  Fold Change between Samples T/C: B-RAF (Phospho-Ser446): 1.05
  Fold Change between Samples T/C: BAX (Phospho-Thr167): 0.95
  Fold Change between Samples T/C: BCL-XL (Phospho-Ser62): 1.23
  Fold Change between Samples T/C: BLNK (Phospho-Tyr96): 0.62
  Fold Change between Samples T/C: CBL (Phospho-Tyr700): 0.88
  Fold Change between Samples T/C: CDK1/CDC2 (Phospho-Tyr15): 0.83
  Fold Change between Samples T/C: CREB (Phospho-Ser133): 0.74
  Fold Change between Samples T/C: CaMK2-beta/gamma/delta (Phospho-Thr287): 0.92
  Fold Change between Samples T/C: CaMK2A (Phospho-Thr286): 0.86
  Fold Change between Samples T/C: Caspase 8 (Phospho-Ser347): 1.08
  Fold Change between Samples T/C: Caspase 9 (Phospho-Ser196): 0.94
  Fold Change between Samples T/C: Catenin beta (Phospho-Thr41/Ser45): 0.83
  Fold Change between Samples T/C: Chk2 (Phospho-Thr68): 0.51
  Fold Change between Samples T/C: Cyclin D1 (Phospho-Thr286): 1.18
  Fold Change between Samples T/C: Cyclin E1 (Phospho-Thr77): 1.02
  Fold Change between Samples T/C: DARPP-32 (Phospho-Thr34): 0.91
  Fold Change between Samples T/C: EEF2 (Phospho-Thr56): 1.12
  Fold Change between Samples T/C: FADD (Phospho-Ser194): 1.53
  Fold Change between Samples T/C: FAK (Phospho-Ser910): 1.09
  Fold Change between Samples T/C: FGFR1 (Phospho-Tyr654): 1.35
  Fold Change between Samples T/C: GRK2 (Phospho-Ser29): 1.26
  Fold Change between Samples T/C: GSK3 alpha/beta (Phospho-Tyr216/279): 0.97
  Fold Change between Samples T/C: Gab2 (Phospho-Tyr643): 1.59
  Fold Change between Samples T/C: HDAC1 (Phospho-Ser421): 1.25
  Fold Change between Samples T/C: HDAC2 (Phospho-Ser394): 0.90
  Fold Change between Samples T/C: HSP90B (Phospho-Ser226): 1.00
  Fold Change between Samples T/C: IKK-beta (Phospho-Tyr188): 1.01
  Fold Change between Samples T/C: IKK-beta (Phospho-Tyr199): 0.84
  Fold Change between Samples T/C: IKK-gamma (Phospho-Ser31): 0.98
  Fold Change between Samples T/C: IL-4R/CD124 (Phospho-Tyr497): 0.93
  Fold Change between Samples T/C: IL-10R-alpha (Phospho-Tyr496): 0.85
  Fold Change between Samples T/C: IkB-alpha (Phospho-Ser32/36): 1.11
  Fold Change between Samples T/C: Integrin beta-3 (Phospho-Tyr773): 0.93
  Fold Change between Samples T/C: JunB (Phospho-Ser259): 0.79
  Fold Change between Samples T/C: LYN (Phospho-Tyr507): 1.06
  Fold Change between Samples T/C: Lamin A/C (Phospho-Ser392): 0.80
  Fold Change between Samples T/C: MEK1 (Phospho-Ser217): 0.62
  Fold Change between Samples T/C: NFkB-p65 (Phospho-Ser311): 1.00
  Fold Change between Samples T/C: NFkB-p65 (Phospho-Ser529): 0.82
  Fold Change between Samples T/C: NFkB-p100/p52 (Phospho-Ser865): 0.88
  Fold Change between Samples T/C: P38 MAPK (Phospho-Thr180/Tyr182): 0.35
  Fold Change between Samples T/C: P70S6K (Phospho-Ser424): 1.00
  Fold Change between Samples T/C: P90RSK (Phospho-Thr359/Ser363): 0.95
  Fold Change between Samples T/C: PDK1 (Phospho-Ser241): 1.14
  Fold Change between Samples T/C: PLCG1 (Phospho-Tyr783): 2.25
  Fold Change between Samples T/C: PLK1 (Phospho-Thr210): 0.60
  Fold Change between Samples T/C: PP2A-alpha (Phospho-Tyr307): 0.93
  Fold Change between Samples T/C: PPAR-gamma (Phospho-Ser112): 1.26
  Fold Change between Samples T/C: Rb (Phospho-Ser807): 0.91
  Fold Change between Samples T/C: RelB (Phospho-Ser552): 0.76
  Fold Change between Samples T/C: SAPK/JNK (Phospho-Tyr185): 0.84
  Fold Change between Samples T/C: SHP-2 (Phospho-Tyr542): 0.91
  Fold Change between Samples T/C: STAT3 (Phospho-Tyr705): 0.92
  Fold Change between Samples T/C: STAT4 (Phospho-Tyr693): 1.04
  Fold Change between Samples T/C: STAT6 (Phospho-Thr645): 0.89
  Fold Change between Samples T/C: SYK (Phospho-Tyr348): 0.91
  Fold Change between Samples T/C: Smad1 (Phospho-Ser187): 1.60
  Fold Change between Samples T/C: Smad2 (Phospho-Ser467): 1.00
  Fold Change between Samples T/C: Smad2/3 (Phospho-Thr8): 1.25
  Fold Change between Samples T/C: Smad3 (Phospho-Ser213): 1.26
  Fold Change between Samples T/C: Src (Phospho-Tyr418): 0.77
